Here are results for one compound from US8114400B2, “Aza-bicyclic compounds and their use as stimulators of soluble guanylate cyclase” (Bayer Pharma Aktiengesellschaft, priority 2006, dated 2012).

The assay concerns aorta rings. The assay can be described thus: Vasorelaxant effect in vitro (phenylephrine-contracted rabbit aorta rings). Also on record: species or system Rabbits. The settings on record: Oryctolagus cuniculus, contraction induced by phenylephrine, 37° C., 0.1% DMSO, read-out: IC50 (concentration necessary to reduce the level of contraction by 50%). The procedure:
Rabbits are stunned by a blow to the back of the neck and are exsanguinated. The aorta is removed, freed of adherent tissue, divided into rings 1.5 mm wide and placed singly in 5 ml organ baths with carbogen-gassed Krebs-Henseleit solution of the following composition (in each case mM): NaCl: 119; KCl: 4.8; CaCl2×2H2O: 1; MgSO4×7H2O: 1.4; KH2PO4: 1.2; NaHCO3: 25; glucose: 10, under an initial tension at 37° C. The force of contraction is detected with Statham UC2 cells, amplified and digitized via A/D converters (DAS-1802 HC, Keithley Instruments Munich), and recorded in parallel on chart recorders. A contraction is induced by adding phenylephrine to the bath cumulatively in increasing concentration. After several control cycles, the substance to be investigated is added in each further run in increasing dosage each time, and the level of contraction is compared with the level of contraction achieved in the last preceding run. The concentration necessary to reduce the level of contraction by 50% (IC50) is calculated therefrom. The standard application volume is 5 μl, and the DMSO content in the bath solution corresponds to 0.1%.

Each structure is given as a SMILES string.

On to `Nc1nc(N)nc(-c2nn(Cc3ccccc3F)c3nccn23)n1` [Example 1, 6-[1-(2-Fluorobenzyl)-1H-imidazo[2,1-c][1,2,4]triazol-3-yl]-1,3,5-triazine-2,4-diamine], for which the IC50 worked out at 6.2 µM.
